Biological target: T1, N-type Ca2+ channels in IMR-32 cells (Homo sapiens, UniProt Q00975)
T1 construct: host or cells: IMR-32 cells, differentiated with dibutyryl cAMP and bromodeoxyuridine
Experiment: Inhibition of N-type calcium flux in IMR-32 cells (Indo-1 fluorescence, nitrendipine present)
Type: cell-based
Procedure: Measurement of N-type Ca^2+ Channel Blocking Potencies of Compounds in IMR-32 Cells Using the Fluorescent Ca^2+ Indicator Indo-1
IMR-32 cells are a human tumoral cell line of neural origin. […] Calcium flux into these cells may be induced by stimulation with elevated potassium concentrations. The L-channel component of calcium flux may be blocked by adding 5 μM nitrendipine. The remaining component of calcium entry into the IMR-32 cells is due to calcium flux through N-type calcium channels. Intracellular calcium concentrations are measured using the fluorescent calcium indicator Indo 1. The effect of drug concentration on calcium uptake is studied.
The IMR-32 cell line was obtained from the American Type Culture Collection (Rockville, Md.). Cells were grown in Eagle's Minimum Essential Medium with Eagle's salts supplemented with 10% fetal bovine serum, 2 mM L-Gln and antibiotic/antimycotic mixture (Gibco). […] After 7 to 13 days of differentiation, cells were detached using 0.5 mM EDTA and loaded with 5 μM Indo-1 acetoxymethyl ester (Molecular Probes, Eugene, OR) at […] for 45 minutes. Loaded cells were washed twice, resuspended (˜10^7 cells/mL) in assay buffer (10 mM HEPES/Tris pH 7.4 in Hank's Balanced Salt Solution without bicarbonate or phenol red containing 0.5% bovine serum albumin) and kept on ice until use. Fluorescence measurements were carried out in a Photon Technology International (PTI, South Brunswick, N.J.) Model RF-F3004 spectrofluorometer with dual emission monochromators using excitation at 350 nm and emission at 400 and 490 nm. The instrument was equipped with a thermostated cuvette holder with stirring capabilities as well as with a computer-controlled pump which allowed for reagent addition during measurement. Instrument control and data collection was done by PTI's OSCAR software running on an IBM compatible computer. […] Samples were incubated for 10 minutes at 30° C. and then aliquoted into three 10×10 mm disposable acrylic cuvettes. Emission signals at 400 and 490 nm were acquired from each cuvette at 30° C. for 50 seconds. At 20 seconds after the start of reading, cells were depolarized by the addition of 160 μL of stimulation solution (1M KCl, 68 mM CaCl2) to the cuvette via the computer-controlled pump. Ratio of dual emission signals (400 nm/490 nm), which is proportional to intracellular Ca^2+ concentration, was plotted against time, and the difference between maximal response after stimulation and basal value (before stimulation) was determined. Values obtained in this way were plotted as a function of drug concentration. IC50 values of test compounds were calculated by fitting a four-parameter logistic function to the data using the least squares method.

T1 sequence (Q00975 whole entry): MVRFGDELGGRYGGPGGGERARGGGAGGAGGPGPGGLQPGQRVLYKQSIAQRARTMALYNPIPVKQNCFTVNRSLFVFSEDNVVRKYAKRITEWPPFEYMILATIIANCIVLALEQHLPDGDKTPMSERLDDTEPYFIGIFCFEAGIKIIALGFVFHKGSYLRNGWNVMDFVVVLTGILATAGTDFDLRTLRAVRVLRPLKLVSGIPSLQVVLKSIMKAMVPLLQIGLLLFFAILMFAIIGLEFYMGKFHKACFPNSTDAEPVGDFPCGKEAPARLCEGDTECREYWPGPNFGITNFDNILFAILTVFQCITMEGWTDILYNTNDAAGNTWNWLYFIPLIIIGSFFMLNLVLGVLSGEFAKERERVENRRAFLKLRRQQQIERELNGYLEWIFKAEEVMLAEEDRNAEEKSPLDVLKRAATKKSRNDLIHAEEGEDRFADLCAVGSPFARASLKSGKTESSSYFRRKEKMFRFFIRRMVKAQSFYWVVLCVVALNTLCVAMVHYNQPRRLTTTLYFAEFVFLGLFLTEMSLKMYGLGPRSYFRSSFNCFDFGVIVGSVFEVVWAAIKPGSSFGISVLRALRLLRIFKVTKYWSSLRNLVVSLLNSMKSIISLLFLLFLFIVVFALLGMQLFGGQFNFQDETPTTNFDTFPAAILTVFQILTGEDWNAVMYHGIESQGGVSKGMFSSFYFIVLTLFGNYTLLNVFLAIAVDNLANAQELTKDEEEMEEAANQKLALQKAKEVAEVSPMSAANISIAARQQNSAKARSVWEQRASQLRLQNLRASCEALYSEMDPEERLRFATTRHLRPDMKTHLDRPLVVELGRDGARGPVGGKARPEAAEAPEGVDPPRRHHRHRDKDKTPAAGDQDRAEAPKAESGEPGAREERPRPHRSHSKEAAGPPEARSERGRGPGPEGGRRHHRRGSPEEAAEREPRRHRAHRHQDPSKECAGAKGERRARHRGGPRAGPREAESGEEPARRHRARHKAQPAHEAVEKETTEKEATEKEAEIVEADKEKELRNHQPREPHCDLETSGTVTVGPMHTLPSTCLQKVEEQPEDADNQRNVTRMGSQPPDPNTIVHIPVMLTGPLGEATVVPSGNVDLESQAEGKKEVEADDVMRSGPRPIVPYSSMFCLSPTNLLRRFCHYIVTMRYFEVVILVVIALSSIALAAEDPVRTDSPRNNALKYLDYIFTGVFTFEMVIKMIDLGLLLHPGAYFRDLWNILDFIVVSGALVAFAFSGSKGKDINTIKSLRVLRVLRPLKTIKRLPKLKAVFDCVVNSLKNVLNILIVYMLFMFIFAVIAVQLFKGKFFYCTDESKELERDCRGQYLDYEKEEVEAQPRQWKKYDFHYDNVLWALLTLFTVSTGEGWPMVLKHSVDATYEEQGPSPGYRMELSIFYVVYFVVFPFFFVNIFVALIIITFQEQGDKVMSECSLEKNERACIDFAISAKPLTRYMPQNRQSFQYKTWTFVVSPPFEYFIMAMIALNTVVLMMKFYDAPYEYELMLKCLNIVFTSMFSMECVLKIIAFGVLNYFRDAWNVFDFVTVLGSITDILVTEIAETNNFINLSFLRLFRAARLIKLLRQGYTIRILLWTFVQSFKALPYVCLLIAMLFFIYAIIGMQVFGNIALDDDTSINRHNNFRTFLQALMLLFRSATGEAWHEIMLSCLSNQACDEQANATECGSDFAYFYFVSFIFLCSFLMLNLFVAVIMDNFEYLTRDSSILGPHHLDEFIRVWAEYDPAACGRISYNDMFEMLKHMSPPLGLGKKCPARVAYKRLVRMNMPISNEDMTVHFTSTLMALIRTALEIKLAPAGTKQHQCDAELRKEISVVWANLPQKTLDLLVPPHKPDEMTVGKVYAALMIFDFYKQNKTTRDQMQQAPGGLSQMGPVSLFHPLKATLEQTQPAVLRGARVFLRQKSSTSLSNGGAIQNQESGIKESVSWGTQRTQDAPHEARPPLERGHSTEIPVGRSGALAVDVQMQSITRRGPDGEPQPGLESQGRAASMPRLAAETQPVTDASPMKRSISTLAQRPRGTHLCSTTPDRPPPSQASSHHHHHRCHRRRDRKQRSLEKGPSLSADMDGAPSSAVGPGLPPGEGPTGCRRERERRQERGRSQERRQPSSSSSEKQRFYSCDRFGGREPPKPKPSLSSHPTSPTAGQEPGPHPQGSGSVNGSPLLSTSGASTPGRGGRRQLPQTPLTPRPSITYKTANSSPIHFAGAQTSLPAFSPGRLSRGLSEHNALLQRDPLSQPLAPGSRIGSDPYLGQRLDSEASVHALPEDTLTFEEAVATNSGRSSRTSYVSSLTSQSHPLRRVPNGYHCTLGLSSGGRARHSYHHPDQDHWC
T1 sequence (P54289 25-956 partner limits assumed): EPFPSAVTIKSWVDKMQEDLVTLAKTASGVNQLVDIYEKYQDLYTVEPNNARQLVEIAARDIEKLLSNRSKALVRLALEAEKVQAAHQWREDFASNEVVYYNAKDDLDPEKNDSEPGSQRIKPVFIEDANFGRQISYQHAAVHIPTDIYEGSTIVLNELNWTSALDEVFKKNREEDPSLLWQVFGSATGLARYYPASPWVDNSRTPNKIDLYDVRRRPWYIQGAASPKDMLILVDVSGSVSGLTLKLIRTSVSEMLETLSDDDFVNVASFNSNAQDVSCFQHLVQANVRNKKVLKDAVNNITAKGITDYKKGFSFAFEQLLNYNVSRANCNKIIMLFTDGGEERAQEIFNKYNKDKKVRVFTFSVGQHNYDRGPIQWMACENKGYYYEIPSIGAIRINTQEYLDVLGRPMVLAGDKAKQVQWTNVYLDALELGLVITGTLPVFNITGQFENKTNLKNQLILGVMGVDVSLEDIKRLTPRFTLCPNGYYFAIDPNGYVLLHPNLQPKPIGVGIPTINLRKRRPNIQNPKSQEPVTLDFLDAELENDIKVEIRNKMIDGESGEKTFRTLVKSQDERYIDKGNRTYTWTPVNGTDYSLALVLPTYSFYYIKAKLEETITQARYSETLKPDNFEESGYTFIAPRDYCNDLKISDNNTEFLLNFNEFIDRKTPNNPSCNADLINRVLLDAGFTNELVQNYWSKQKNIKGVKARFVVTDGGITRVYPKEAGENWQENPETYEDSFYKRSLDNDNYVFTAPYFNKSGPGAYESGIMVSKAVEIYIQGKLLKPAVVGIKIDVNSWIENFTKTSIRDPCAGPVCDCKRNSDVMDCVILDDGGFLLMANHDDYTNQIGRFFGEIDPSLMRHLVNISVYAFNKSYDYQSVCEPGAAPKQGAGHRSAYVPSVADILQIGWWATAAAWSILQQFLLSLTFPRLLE
T1 sequence (P54289 957-1103 partner limits assumed): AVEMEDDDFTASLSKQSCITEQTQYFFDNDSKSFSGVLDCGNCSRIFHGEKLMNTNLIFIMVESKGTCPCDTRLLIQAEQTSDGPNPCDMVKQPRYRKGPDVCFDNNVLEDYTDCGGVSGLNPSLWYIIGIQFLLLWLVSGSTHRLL
T1 sequence (P54284 whole entry partner): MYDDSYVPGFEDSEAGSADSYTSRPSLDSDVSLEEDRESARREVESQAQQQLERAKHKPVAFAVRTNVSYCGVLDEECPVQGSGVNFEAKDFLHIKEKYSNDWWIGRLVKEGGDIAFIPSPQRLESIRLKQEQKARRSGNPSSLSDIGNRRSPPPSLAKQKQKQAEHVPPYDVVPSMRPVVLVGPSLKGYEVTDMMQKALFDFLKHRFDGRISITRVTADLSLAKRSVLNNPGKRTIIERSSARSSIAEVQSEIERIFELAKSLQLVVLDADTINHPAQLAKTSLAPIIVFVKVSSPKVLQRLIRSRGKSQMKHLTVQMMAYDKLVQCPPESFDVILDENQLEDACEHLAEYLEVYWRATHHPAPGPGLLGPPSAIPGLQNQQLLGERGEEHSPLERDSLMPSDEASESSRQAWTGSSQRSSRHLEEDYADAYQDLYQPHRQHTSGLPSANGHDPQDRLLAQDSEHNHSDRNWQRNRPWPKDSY

Structure (SMILES)	Inhibition of Calcium Flux in IMR-32 Cells % Inhibition at 1 μM	Inhibition of Calcium Flux in IMR-32 Cells % Inhibition at 10 μM
CC(C)C[C@H](NC(=O)N1CCCCCC1)C(=O)N[C@@H](Cc1ccc(OCc2ccccc2)cc1)C(=O)OCc1ccccc1 (relative stereo) [Example 14, [S-(R*,R*)]-2-{2-[(Azepane-1-carbonyl)-amino]-4-methyl-pentanoylamino}-3-(4-benzyloxy-phenyl)-propionic acid benzyl ester]	45%	
COC(=O)[C@H](Cc1ccc(OC(C)(C)C)cc1)NC(=O)[C@H](CC(C)C)NC(=O)N1CCCCCC1 (relative stereo) [Example 22, [S-(R*,R*)]-2-{2-[(Azepane-1-carbonyl)-amino]-4-methyl-pentanoylamino}-3-(4-tert-butoxy-phenyl)-propionic acid methyl ester]	29%	
CC(C)C[C@H](NC(=O)N1CCCCCC1)C(=O)N[C@@H](Cc1ccc(OCc2cccc(N)c2)cc1)C(=O)OC(C)(C)C (relative stereo) [Example 29, [S-(R*,R*)]-3-[4-(3-Amino-benzyloxy)-phenyl]-2-{2-[(azepane-1-carbonyl)-amino]-4-methyl-pentanoylamino}-propionic acid tert-butyl ester]	43%	87%
CC(C)C[C@H](NC(=O)N1CCOCC1)C(=O)N[C@@H](Cc1ccc(OCc2ccccc2)cc1)C(=O)OC(C)(C)C (relative stereo) [Example 34, [S-(R*,R*)]-3-(4-Benzyloxy-phenyl)-2(S)-{4-methyl-2(S)-[(morpholine-4-carbonyl)-amino]-pentanoylamino}-propionic acid tert-butyl ester]	29%	78%
CC(C)C[C@H](NC(=S)Nc1ccc(C(C)C)cc1)C(=O)N[C@@H](Cc1ccc(OCc2ccccc2)cc1)C(=O)OC(C)(C)C (relative stereo) [Example 43, [S-(R*,R*)]-3-(4-Benzyloxy-phenyl)-2-{2-[3-(4-isopropyl-phenyl)-thioureido]-4-methyl-pentanoylamino}-propionic acid, tert-butyl ester]	17%	38%
CC(C)C[C@H](NC(=S)Nc1ccc(Br)cc1)C(=O)N[C@@H](Cc1ccc(OCc2ccccc2)cc1)C(=O)OC(C)(C)C (relative stereo) [Example 45, [S-(R*,R*)]-3-(4-Benzyloxy-phenyl)-2-{2-[3-(4-bromophenyl)-thioureido]-4-methyl-pentanoyl-amino}-propionic acid, tert-butyl ester]	29%	68%
CC(C)C[C@H](NC(=S)NC12CC3CC(CC(C3)C1)C2)C(=O)N[C@@H](Cc1ccc(OCc2ccccc2)cc1)C(=O)OC(C)(C)C (relative stereo) [Example 46, [S-(R*,R*)]-3-(4-Benzyloxy-phenyl)-2-{2-[3-(1-adamantyl)-thioureido]-4-methylpentanoylamino}-propionic acid, tert-butyl ester]	29%	49%
Cc1ccc(NC(=S)N[C@@H](CC(C)C)C(=O)N[C@@H](Cc2ccc(OCc3ccccc3)cc2)C(=O)OC(C)(C)C)cc1 (relative stereo) [Example 50, [S-(R*,R*)]-3-(4-Benzyloxy-phenyl)-2-[4-methyl-2-(3-p-tolyl-thioureido)-pentanoylamino]-propionic acid tert-butyl ester]	53%	85%
CNC(=S)N[C@@H](CC(C)C)C(=O)N[C@@H](Cc1ccc(OCc2ccccc2)cc1)C(=O)OC(C)(C)C (relative stereo) [Example 51, [S-(R*,R*)]-3-(4-Benzyloxy-phenyl)-2-[4-methyl-2-(3-methyl-thioureido)-pentanoylamino]-propionic acid tert-butyl ester]	32%	85%
CC(C)C[C@H](NC(=O)N1CCCCCC1)C(=O)N[C@@H](Cc1ccc(OCc2c(Cl)cccc2Cl)cc1)C(=O)NC(C)(C)C (relative stereo) [Example 52, [S-(R*,R*)]-Azepane-1-carboxylic acid (1-{1-tert-butylcarbamoyl-2-[4-(2,6-dichloro-benzyloxy)-phenyl]-ethylcarbamoyl}-3-methyl-butyl)-amide]	56%	76%
CC(C)C[C@H](NC(=O)Nc1ccccc1)C(=O)N[C@@H](Cc1ccc(OCc2ccccc2)cc1)C(=O)OC(C)(C)C (relative stereo) [Example 54, [S-(R*,R*)]-3-(4-Benzyloxy-phenyl)-2-[4-methyl-2-(3-phenyl-ureido)-pentanoylamino]propionic acid tert-butyl ester]	44%	63%
CC(C)C[C@H](NC(=O)Nc1ccc([N+](=O)[O-])cc1)C(=O)N[C@@H](Cc1ccc(OCc2ccccc2)cc1)C(=O)OC(C)(C)C (relative stereo) [Example 55, [S-(R*,R*)]-3-(4-Benzyloxy-phenyl)-2-{4-methyl-2-[3-(4-nitro-phenyl)-ureido]pentanoylamino}-propionic acid tert-butyl ester]	14%	46%

Other lines, results leading:

Inhibition of Calcium Flux in IMR-32 Cells % Inhibition at 1 μM	Inhibition of Calcium Flux in IMR-32 Cells % Inhibition at 10 μM	Structure (SMILES)
24%	56%	CC(C)C[C@H](NC(=O)NC1CCCCC1)C(=O)N[C@@H](Cc1ccc(OCc2ccccc2)cc1)C(=O)OC(C)(C)C (relative stereo) [Example 56, [S-(R*,R*)]-3-(4-Benzyloxy-phenyl)-2-[2-(3-cyclohexyl-ureido)-4-methyl-pentanoylamino]propionic acid tert-butyl ester]
34%	74%	COc1cccc(NC(=O)N[C@@H](CC(C)C)C(=O)N[C@@H](Cc2ccc(OCc3ccccc3)cc2)C(=O)OC(C)(C)C)c1 (relative stereo) [Example 57, [S-(R*,R*)]-3-(4-Benzyloxy-phenyl)-2-{2-[3-(3-methoxy-phenyl)-ureido]-4-methyl-pentanoylamino}-propionic acid tert-butyl ester]
52%	35%	Cc1ccc(NC(=O)N[C@@H](CC(C)C)C(=O)N[C@@H](Cc2ccc(OCc3ccccc3)cc2)C(=O)OC(C)(C)C)cc1 (relative stereo) [Example 58, [S-(R*,R*)]-3-(4-Benzyloxy-phenyl)-2-[4-methyl-2-(3-p-tolyl-ureido)-pentanoylamino]propionic acid tert-butyl ester]
41%	61%	CCCCNC(=O)N[C@@H](CC(C)C)C(=O)N[C@@H](Cc1ccc(OCc2ccccc2)cc1)C(=O)OC(C)(C)C (relative stereo) [Example 59, [S-(R*,R*)]-3-(4-Benzyloxy-phenyl)-2-[2-(3-butyl-ureido)-4-methyl-pentanoylamino]-propionic acid tert-butyl ester]
24%		CC(C)C[C@H](NC(=O)NCc1ccccc1)C(=O)N[C@@H](Cc1ccc(OCc2ccccc2)cc1)C(=O)OC(C)(C)C (relative stereo) [Example 60, [S-(R*,R*)]-3-(4-Benzyloxy-phenyl)-2-[2-(3-benzyl-ureido)-4-methyl-pentanoylamino]-propionic acid tert-butyl ester]
34%		Cc1ccccc1NC(=O)N[C@@H](CC(C)C)C(=O)N[C@@H](Cc1ccc(OCc2ccccc2)cc1)C(=O)OC(C)(C)C (relative stereo) [Example 61, [S-(R*,R*)]-3-(4-Benzyloxy-phenyl)-2-[4-methyl-2-(3-o-tolyl-ureido)-pentanoylamino]-propionic acid tert-butyl ester]
29%		Cc1cccc(C)c1NC(=O)N[C@@H](CC(C)C)C(=O)N[C@@H](Cc1ccc(OCc2ccccc2)cc1)C(=O)OC(C)(C)C (relative stereo) [Example 62, [S-(R*,R*)]-3-(4-Benzyloxy-phenyl)-2-{2-[3-(2,6-dimethyl-phenyl)-ureido]-4-methyl-pentanoylamino}-propionic acid tert-butyl ester]

Source: patent US6423689B1, “Peptidyl calcium channel blockers” (Warner-Lambert Company, priority 1997, dated 2002)
